Like-named read-outs stand apart in the source and are kept apart here.
How the values were obtained:
[1] = tested on: HCT116 colon carcinoma cells; test: MTT cell viability assay; type: cell-based, Human; conditions: Homo sapiens, HCT-116, HCT116, 48 h of treatment, mean
Experimental: Human colorectal carcinoma HCT116 cells (#91091005, ECACC) were grown in an IMDM medium (Biowest) supplemented with 2 mM glutamine, 100 IU/mL penicillin, 100 μg/mL streptomycin and 10% FBS (Gibco). The cell lines were grown at 37 °C in a humidified incubator containing 5% CO2. The cells were verified to be mycoplasma-free and passaged < 3 months. The inhibition of cell proliferation was measured by colorimetric 3-(4,5-dimethylthiazol-2-yl)-2,5-diphenyltetrazolium bromide (MTT) assay. GI50 concentrations were determined using the CompuSyn software version 1.0 (ComboSyn, Inc., Paramus, NJ USA) (free download via www.combosyn.com, accessed on 30 May 2022), and statistical analyses were performed using the GraphPad PRISM software (version 6.01 for Windows, GraphPad Software, San Diego, California USA GraphPad Prism) using unpaired t-test. Data were considered to be statistically significant if p < 0.05 (*), p < 0.01 (**), p < 0.001(***) and p < 0.0001 (****).

[2] = Kinetic stability of ligands in simulated physiological conditions (UV-Vis); type: physicochemical
Experimental: The chemical stability of ligands and metal complexes at the M:L 1:L molar ratio at 37 °C in darkness was evaluated by UV−Vis spectroscopy as a change in absorbance in the 250−600 nm range over an overall period of 8 h. Solutions (5.0 × 10^–5 mol L^–1) of the ligands were prepared in 0.1 mol L^–1 phosphate-buffered solution (PBS) at pH 7.4. Spectra were recorded every 30 min. All profiles were linearized as the hyperbolic function defined by Equation (2), which represents an empirical model that describes drug decomposition or release well [42]:(2) t/f%=at+b where f% is the percentage of the residual compound at time t (min) referred to the starting concentration at time zero determined by reading the absorbance at λmax.

[3] = Keto-enol/diketo tautomer amounts by 1H NMR; type: physicochemical; conditions: molar percentage, MeOD-d4, 298 K
Experimental: NMR spectra were recorded by means of a Bruker Biospin FT-NMR AVANCE III HD (600 MHz) spectrometer equipped with a CryoProbe BBO H&F 5 mm in inverse detection. The nominal frequencies were 150.90 MHz for ^13C and 600.13 MHz for ^1H, respectively. For each sample, 1–5 mg were weighed and diluted up to 0.6 mL with a proper solvent in a 5 mm NMR tube; 90° pulse was calibrated for each sample, and standard NMR parameters were used to achieve quantitative results (relaxation delay, 10 s). Proton and carbon chemical shifts are given in parts per million (ppm) versus external TMS and were determined by reference to the solvent residual signals. Typical 2D homo- and heteronuclear techniques were used for assignment, i.e., ^1H,^1H COSY, ^1H,^13C HSQC, ^1H,^13C HMBC. NMR investigations of Ga^3+:L systems were performed in MeOD-d4 by adding small amounts of a Ga(NO3)3 solution (10 μL each) to 1 mM ligand solution (0.6 mL) until reaching the desired metal-to-ligand molar ratio. The complexation reaction is fast, and spectra were registered few minutes after the addition. Two-dimensional ^1H,^13C heteronuclear multiple bond correlation (HMBC) experiments (hmbcgpndqf in Bruker library) were performed via heteronuclear zero and double quantum coherence, optimized on long-range couplings (^3/4JHC = 8 Hz), with no decoupling during acquisition, and gradient pulses were used for selection. The relative percentages of the isomeric forms were estimated on the basis of the NMR data. Particularly, ^1H NMR spectra were acquired in quantitative conditions being D1 (relaxation delay) at least five times the T1 of the slowest relaxing signal of interest. The raw data were Fourier-transformed, and then the processing was performed by zero filling (SI = TD), line broadening (lb 0.3 Hz), accurate phasing and correcting the baseline. The most isolated signals were selected for integration, i.e., the vinyl protons (H-3 and H-4), and an average of the integrated area (A) of H-3 and H-4 was used for relative quantitation, according to the following equation: %Tautomeri=(A(H−3)i+(A(H−4)i)/2/∑i(A(H−3)i+(A(H−4)i)/2×100

[4] = Spectrophotometric pH titrations of ligands (protonation constants, pKa); type: physicochemical; conditions: 298 K; for pKa: aqueous solution (methanol stock diluted in water), calculated from logβ values, * = keto–enol moiety dissociation
Experimental: (§1) UV–visible spectra were recorded with a JASCO V-570 UV/Vis/NIR spectrophotometer at 298 K in the 250–600 nm spectral range employing quartz cells (1 cm optical path). To perform spectrophotometric titrations, ligands (denoted generally as L in the following) were dissolved in methanol to give a mother solution (2.50 mM), that was then diluted in water in order to obtain a final concentration of 50 μM. The metal/ligand (M:L) solutions were obtained by adding appropriate quantities of Ga(NO3)3 as methanol solutions (5–10 mM) in order to obtain the metal-to-ligand 1:1 molar ratio (L = 50 μM and V = 25 mL). For both L and M:L systems, pH (initial value of about 5) was varied by adding small amounts (<1 μL) of concentrated NaOH (4 M) up to ca. pH 11, thus to consider volume variations negligible. To evaluate the complexation ratio, constant additions of the M solution (10 µL each time, M = 10^–2 M) were dropped into the ligand solution (V = 25 mL, L = 50 μM) using a micropipette in order to reach different M:L molar ratios. A constant ionic strength (NaNO3, 0.1 M) was maintained in all experiments. Spectrophotometric investigations of iron(III) systems were performed in the same conditions; the Fe^3+ solution was freshly prepared in methanol starting from Fe(NO3)3·9H2O. The overall protonation constants (logβqr) and the overall stability constants of metal complexes (logβpqr) were evaluated from spectrophotometric data. The stability constants (βpqr), defined by the following equations:(3) pM^m++qL^l^−+rH^+⇌MpLqHr(mp−lq+r) (4) βpqr=[MpLqHr(mp−lq+r)]/[M^m+]^p·[L^l−]^q·[H^+]^r where L is the ligand in the completely dissociated form and H is proton, were refined using least-squares calculation in HypSpec. The results of least-squares calculation include the standard deviations and correlation coefficients of the refined parameters. The quantities are obtained by performing error propagation calculation from the experimental errors onto the parameters. The stability constant refinement furnishes least-squares estimates of the standard deviation, σ, of the stability constant β. The error on logβ is calculated as follows: σ(logβ) = [log(β + σ) − log(β − σ)]/2.

[5] = Spectrophotometric pH-metric titrations of Ga^3+:ligand systems (stability constants, pGa, speciation); type: physicochemical
Experimental: as §1
Hydroxide species, such as [Ga(OH)2]^+, were taken into account for calculations. The hydrolysis constants for Ga^3+ are as follows: logβ1,1,0 = −3.93; logβ2,1,0 = −7.73; logβ3,1,0 = −12.38; logβ4,1,0 = −15.96; logβ32,13,0 = −66.3; logβ3,1,0(s) = −3.54 [43]; pGa is defined as (−log[Ga^3+]free) and is calculated at specific conditions (Ga^3+total = 1 μM, Ltotal = 10 μM, pH 7.4, 25 °C). For the calculation of the iron(III) overall stability constants, the presence of [Fe(OH)]^2+, [Fe(OH)2]^+ and [Fe(OH)3] species was taken into account.

[6] = cited from earlier work
transferrin = tested on: transferrin; parameters: method as in PMID 22800370; conditions: normal plasma bicarbonate concentrations; cited from earlier work
[7] = HypSpec, spectrophotometric data

COc1cc(/C=C/C(=O)CC(=O)/C=C/c2ccc(O)c(OC)c2)ccc1O [CUR, Curcumin]
GI50 [1]: 12.9 µM

O=C(/C=C/c1ccc(O)cc1)C(CCCN1C(=O)c2ccccc2C1=O)C(=O)/C=C/c1ccc(O)cc1 [Compound 3]
Stability: percentage of the residual ligand after 4 h ([2]; PBS, pH 7.4, 37 °C in darkness, 4 h): 47%
Stability ranking (residual ligand after 4 h) ([2]; rank among the 7 ligands, 1 = most stable): 6
KK (%) amount of diketo form [3]: 55%
KE (%) amount of keto–enol form ([3]; for 2 includes KE form of the Z isomer (6%)): 45%
logβ011 overall protonation constant [4, 7]: 10.88 (2)
logβ012 overall protonation constant [4, 7]: 20.29 (2)
logβ013 overall protonation constant [4, 7]: 28.84 (4)
pKa ([4]; read-out: pKa1): 8.55
pKa ([4]; read-out: pKa2): 9.41
pKa ([4]; read-out: pKa3): 10.9
log β 112 overall stability constant (Ga^3+) ([5]; 298 K, HypSpec): 28.28 (3)
log β 124 overall stability constant (Ga^3+) ([5]; 298 K, HypSpec): 54.63 (5)
logK11 apparent formation constant (Ga^3+, M:L 1:1) ([5]; 298 K, estimated from logβMLH): 7.99
logK12 apparent formation constant (Ga^3+, M:L 1:2) ([5]; 298 K, estimated from logβMLH): 14.05
Prevailing Species (pH 5.5) ([5]; Ga^3+ complex species, pH 5.5): [Ga(H2L)2]^+
Prevailing Species (pH 7.4) ([5]; Ga^3+ complex species, pH 7.4, ** possible formation of gallium hydroxide species): [Ga(H2L)2]^+
pGa (−log[Ga^3+]free) ([5]; [Ga^3+]total = 1 μM, [L]total = 10 μM, pH 7.4, 25 °C): 20.8
GI50 [1]: 6.21 µM

CC(=O)N(O)CCCCCNC(=O)CCC(=O)N(O)CCCCCNC(=O)CCC(=O)N(O)CCCCCN [DFOB]
pGa [6]: 21.6

[Fe+3] [Fe^3+]
log K1 binding constant to transferrin (transferrin): 22.8
log K2 binding constant to transferrin (transferrin): 21.7

[Ga+3] [Ga^3+]
log K1 binding constant to transferrin (transferrin): 20.3
log K2 binding constant to transferrin (transferrin): 19.3

O=C(O)CCP(=O)(O)CN1CCN(CP(=O)(O)CCC(=O)O)CCN(CP(=O)(O)CCC(=O)O)CC1 [PrP9]
pGa [6]: 23.1
